# Measured values as given in patent publication US4695545A, “Culture and process for producing A41030 antibiotics” (Eli Lilly and Company, priority 1984, dated 1987).
# Key:
# Bacteroides vulgatis = experiment: MIC anaerobic bacteria, agar-dilution; format: cell-based; details: Bacteroides vulgatis 1211
# [1] = test system: Staphylococcus epidermidis; experiment: MIC aerobic bacteria, standard agar-dilution assay; format: cell-based
# [2] = Electrometric titration (pKa); format: physicochemical; details: electrometric titration in 66% dimethylformamide in water; for possibly additional pKa's: stated as possible
# Source text: Antibiotic A41030 factor A is a white, crystalline solid.
# Solubility in solvents = format: physicochemical; details: qualitative
# Source text: As many as seven antibiotic factors are recovered from the fermentation and are obtained as a mixture, the A41030 complex. It will be recognized that the ratio of the factors in the A41030 complex will vary, depending upon the fermentation conditions used. The individual factors A, B, C, D, E, F, and G are separated and isolated as individual compounds, as hereinafter described.
# Clostridium difficile [3] = experiment: MIC anaerobic bacteria, agar-dilution; format: cell-based; details: Clostridium difficile 2994; agar-dilution (Table 9)
# [4] = test system: Bacteroides thetaiotaomicron; experiment: MIC anaerobic bacteria, agar-dilution; format: cell-based; details: Bacteroides thetaiotaomicron 1438
# [5] = test system: Peptococcus asaccharolyticus; experiment: MIC anaerobic bacteria, agar-dilution; format: cell-based; details: Peptococcus asaccharolyticus 1302
# Propionibacterium acnes [6] = experiment: MIC anaerobic bacteria, agar-dilution; format: cell-based; details: Propionibacterium acnes 79; agar-dilution (Table 9)
# Clostridium perfringens = format: cell-based; details: Clostridium perfringens 81; agar-dilution
# [7] = test system: Streptococcus sp. Group D; experiment: MIC aerobic bacteria, standard agar-dilution assay; format: cell-based
# Clostridium septicum = experiment: MIC anaerobic bacteria, agar-dilution; format: cell-based; details: Clostridium septicum 1128
# [8] = test system: Peptostreptococcus anaerobius; experiment: MIC anaerobic bacteria, agar-dilution; format: cell-based; details: Peptostreptococcus anaerobius 1428
# S. pyogenes = experiment: In vivo oral activity against S. pyogenes in mice
# Haemophilus influenzae = experiment: MIC aerobic bacteria, standard agar-dilution assay; format: cell-based
# [9] = test system: Fusobacterium necrophorum; experiment: MIC anaerobic bacteria, agar-dilution; format: cell-based; details: Fusobacterium necrophorum 6054A
# [10] = test system: Bacteroides melaninogenicus; experiment: MIC anaerobic bacteria, agar-dilution; format: cell-based
# Fusobacterium symbiosum = experiment: MIC anaerobic bacteria, agar-dilution; format: cell-based; details: Fusobacterium symbiosum 1470
# Peptococcus prevoti = experiment: MIC anaerobic bacteria, agar-dilution; format: cell-based; details: Peptococcus prevoti 1281
# Clostridium difficile [11] = experiment: MIC against Clostridium difficile strains, agar-dilution; format: cell-based
# Source text: The A41030 antibiotic factors A, B, C, D, E, F, and G, are also active against a number of strains of Clostridium difficile, as determined by the agardilution method.
# Bacteroides corrodens = experiment: MIC anaerobic bacteria, agar-dilution; format: cell-based; details: Bacteroides corrodens 1874
# Streptococcus pyogenes = experiment: MIC aerobic bacteria, standard agar-dilution assay; format: cell-based; details: Streptococcus pyogenes C203, 24 hours
# Propionibacterium acnes [12] = experiment: MIC against Propionibacterium acnes strains, 24-hour agar-dilution; format: cell-based
# Source text: Antibiotic A41030 factors A, B and C have been tested and found to be active against a genus of anaerobic bacteria identified as Propionibacterium acnes.
# Bacteroides fragilis = experiment: MIC anaerobic bacteria, agar-dilution; format: cell-based
# Streptococcus pneumoniae = experiment: MIC aerobic bacteria, standard agar-dilution assay; format: cell-based; details: Streptococcus pneumoniae Park I, 24 hours
# Eubacterium aerofaciens = experiment: MIC anaerobic bacteria, agar-dilution; format: cell-based; details: Eubacterium aerofaciens 1235
# [13] = test system: Peptostreptococcus intermedius; experiment: MIC anaerobic bacteria, agar-dilution; format: cell-based; details: Peptostreptococcus intermedius 1264
# Staphylococcus aureus = experiment: MIC aerobic bacteria, standard agar-dilution assay; format: cell-based; details: Staphylococcus aureus S13E; agar-dilution, 24 hours
# Escherichia coli = experiment: MIC aerobic bacteria, standard agar-dilution assay; format: cell-based; details: Escherichia coli TEM, 24 hours
# [14] = Staphylococcus epidermidis EPI1, 24 hours
# [15] = Streptococcus sp. Group D 9960, 24 hours
# [16] = Streptococcus sp. Group D X66, 24 hours
# [17] = Bacteroides melaninogenicus 2736
substance,measurement,setting,value
A41030 factor C,MIC,Bacteroides vulgatis,32 µg/mL
same,MIC,[1]; [14],0.5 µg/mL
same,"pKa, second titratable group",[2],~7.1
same,possibly additional pKa's,[2],> 10
same,solubility (solvents),Solubility in solvents,soluble in the same solvents as factor A
same,MIC,Clostridium difficile [3],16 µg/mL
same,MIC,[4],64 µg/mL
same,MIC,[5],≤ 0.25 µg/mL
same,MIC,Propionibacterium acnes [6],≤ 0.25 µg/mL
same,MIC,Clostridium perfringens,1.0 µg/mL
same,MIC,[7]; [15],4 µg/mL
same,MIC,[7]; [16],2 µg/mL
same,MIC,Clostridium septicum,8 µg/mL
same,MIC,[8],≤ 0.25 µg/mL
same,in vivo oral activity,S. pyogenes,> 300 mg./kg.×2
same,MIC,"Haemophilus influenzae; Haemophilus influenzae 251, 24 hours",4 µg/mL
same,MIC,"Haemophilus influenzae; Haemophilus influenzae Brun, 24 hours",16 µg/mL
same,MIC,[9],16 µg/mL
same,MIC,[10]; [17],4 µg/mL
same,MIC,Fusobacterium symbiosum,1.0 µg/mL
same,MIC,Peptococcus prevoti,≤ 0.25 µg/mL
same,MIC,Clostridium difficile [11]; Clostridium difficile 78,1.0 µg/mL
same,MIC,Clostridium difficile [11]; Clostridium difficile 107B,1.0 µg/mL
same,MIC,Clostridium difficile [11]; Clostridium difficile 111F,2 µg/mL
same,MIC,Clostridium difficile [11]; Clostridium difficile 1153,2 µg/mL
same,MIC,Clostridium difficile [11]; Clostridium difficile 2634,2 µg/mL
same,MIC,Clostridium difficile [11]; Clostridium difficile 3424-5B,1.0 µg/mL
same,MIC,Clostridium difficile [11]; Clostridium difficile 3816,2 µg/mL
same,MIC,Clostridium difficile [11]; Clostridium difficile 3950D,2 µg/mL
same,MIC,Clostridium difficile [11]; Clostridium difficile 6890,2 µg/mL
same,MIC,Clostridium difficile [11]; Clostridium difficile 8484,1.0 µg/mL
same,MIC,Clostridium difficile [11]; Clostridium difficile A-194,2 µg/mL
same,MIC,Clostridium difficile [11]; Clostridium difficile A-195,1.0 µg/mL
same,MIC,Clostridium difficile [11]; Clostridium difficile A-196,2 µg/mL
same,MIC,Clostridium difficile [11]; Clostridium difficile A-279,2 µg/mL
same,MIC,Clostridium difficile [11]; Clostridium difficile A-280,1.0 µg/mL
same,MIC,Clostridium difficile [11]; Clostridium difficile A-281,2 µg/mL
same,MIC,Clostridium difficile [11]; Clostridium difficile WAL-2112,2 µg/mL
same,MIC,Clostridium difficile [11]; Clostridium difficile WAL-3657,2 µg/mL
same,MIC,Clostridium difficile [11]; Clostridium difficile WAL-4268,1.0 µg/mL
same,MIC,Bacteroides corrodens,32 µg/mL
same,MIC,Streptococcus pyogenes,1 µg/mL
same,MIC,Propionibacterium acnes [12]; P. acnes strain 104,0.25 µg/mL
same,MIC,Propionibacterium acnes [12]; P. acnes strain 5170,≤ 0.03 µg/mL
same,MIC,Propionibacterium acnes [12]; P. acnes strain 5176,≤ 0.03 µg/mL
same,MIC,Propionibacterium acnes [12]; P. acnes strain 5187,0.06 µg/mL
same,MIC,Propionibacterium acnes [12]; P. acnes strain 5197,≤ 0.03 µg/mL
same,MIC,Propionibacterium acnes [12]; P. acnes strain 5227,0.06 µg/mL
same,MIC,Propionibacterium acnes [12]; P. acnes strain 5228,1.0 µg/mL
same,MIC,Propionibacterium acnes [12]; P. acnes strain 5229,0.5 µg/mL
same,MIC,Propionibacterium acnes [12]; P. acnes strain 5246,0.06 µg/mL
same,MIC,Propionibacterium acnes [12]; P. acnes strain 5292,0.06 µg/mL
same,MIC,Bacteroides fragilis; Bacteroides fragilis 1877,16 µg/mL
same,MIC,Bacteroides fragilis; Bacteroides fragilis 1936B,32 µg/mL
same,MIC,Streptococcus pneumoniae,1 µg/mL
A41030 factor D,MIC,Bacteroides vulgatis,32 µg/mL
same,MIC,[1]; [14],0.25 µg/mL
same,MIC,"[1]; Staphylococcus epidermidis EPI2, 24 hours",1 µg/mL
same,MIC,Eubacterium aerofaciens,0.5 µg/mL
same,possibly additional pKa's,[2],> 10
same,solubility (solvents),Solubility in solvents,soluble in the same solvents as factor A
same,MIC,Clostridium difficile [3],0.5 µg/mL
same,MIC,[13],1.0 µg/mL
same,MIC,[4],32 µg/mL
same,MIC,Propionibacterium acnes [6],0.25 µg/mL
same,MIC,Clostridium perfringens,0.5 µg/mL
same,MIC,[7]; [15],1 µg/mL
same,MIC,[7]; [16],1 µg/mL
same,MIC,Clostridium septicum,0.25 µg/mL
same,MIC,[8],0.5 µg/mL
same,MIC,"Haemophilus influenzae; Haemophilus influenzae 76, 24 hours",8 µg/mL
same,MIC,"Haemophilus influenzae; Haemophilus influenzae C.L., 24 hours",8 µg/mL
same,MIC,[10]; Bacteroides melaninogenicus 1856/28,> 64 µg/mL
same,MIC,[10]; [17],0.5 µg/mL
same,MIC,Fusobacterium symbiosum,0.5 µg/mL
same,MIC,Peptococcus prevoti,0.25 µg/mL
same,MIC,Clostridium difficile [11]; Clostridium difficile 78,≤ 0.25 µg/mL
same,MIC,Clostridium difficile [11]; Clostridium difficile 107B,≤ 0.25 µg/mL
same,MIC,Clostridium difficile [11]; Clostridium difficile 111F,≤ 0.25 µg/mL
same,MIC,Clostridium difficile [11]; Clostridium difficile 1153,1.0 µg/mL
same,MIC,Clostridium difficile [11]; Clostridium difficile 2634,0.5 µg/mL
same,MIC,Clostridium difficile [11]; Clostridium difficile 3424-5B,0.5 µg/mL
same,MIC,Clostridium difficile [11]; Clostridium difficile 3816,0.5 µg/mL
same,MIC,Clostridium difficile [11]; Clostridium difficile 3950D,0.5 µg/mL
same,MIC,Clostridium difficile [11]; Clostridium difficile 6890,0.5 µg/mL
same,MIC,Clostridium difficile [11]; Clostridium difficile 8484,≤ 0.25 µg/mL
same,MIC,Clostridium difficile [11]; Clostridium difficile A-194,≤ 0.25 µg/mL
same,MIC,Clostridium difficile [11]; Clostridium difficile A-195,≤ 0.25 µg/mL
same,MIC,Clostridium difficile [11]; Clostridium difficile A-196,0.5 µg/mL
same,MIC,Clostridium difficile [11]; Clostridium difficile A-279,≤ 0.25 µg/mL
same,MIC,Clostridium difficile [11]; Clostridium difficile A-280,≤ 0.25 µg/mL
same,MIC,Clostridium difficile [11]; Clostridium difficile A-281,0.5 µg/mL
same,MIC,Clostridium difficile [11]; Clostridium difficile WAL-2112,≤ 0.25 µg/mL
same,MIC,Clostridium difficile [11]; Clostridium difficile WAL-3657,≤ 0.25 µg/mL
same,MIC,Clostridium difficile [11]; Clostridium difficile WAL-4268,≤ 0.25 µg/mL
same,MIC,Staphylococcus aureus,0.25 µg/mL
same,MIC,Bacteroides corrodens,32 µg/mL
same,MIC,Streptococcus pyogenes,0.5 µg/mL
same,MIC,Bacteroides fragilis; Bacteroides fragilis 111,32 µg/mL
same,MIC,Bacteroides fragilis; Bacteroides fragilis 1877,32 µg/mL
same,MIC,Bacteroides fragilis; Bacteroides fragilis 1936B,32 µg/mL
same,MIC,Streptococcus pneumoniae,0.5 µg/mL
same,MIC,Escherichia coli,64 µg/mL
